# From patent US7582618B2 (priority 2002, dated 2009)
# Assays:
# HepG2 cells [1] = assay: Mitochondrial DNA content (mtDNA/nuclear DNA); format: cell-based, human; conditions: 10 μM
# Protocol: To assess the potential of mCyd to produce mitochondrial toxicity, several in vitro studies were conducted using the human hepatoma cell lines HepG2 or Huh7.
# • a. HepG2 or huh7 cells were treated with compounds for 4 days, data represent at least three independent experiments • b. HepG2 cells were treated with compounds for 6 and 14 days, data represents at least three independent experiments • c. HepG2 cells were treated with compounds for 14 days • d. 17% cell (11 of 64) contained 1 or 2 enlarged mitochondria out of 25 in two independent experiments nd, not determined
# [2] = system: BVDV NADL cp in MDBK cells; assay: Yield reduction assay; format: cell-based, bovine viral diarrhea virus
# [3] = system: BVDV I-NADL cp in MDBK cells; assay: Yield reduction assay; format: cell-based; conditions: Bovine viral diarrhea virus isolates and strains
# Protocol: For each compound the concentration to obtain a 6-log reduction in viral load was determined in duplicate 24-well plates by yield reduction assays. The assay was performed as described by Baginski, S. G.; Pevear, D. C.; Seipel, M.; Sun, S. C. C.; Benetatos, C. A.; Chunduru, S. K.; Rice, C. M. and M. S. Collett “Mechanism of action of a pestivirus antiviral compound” PNAS USA 2000, 97(14), 7981-7986, with minor modifications. Briefly, MDBK cells were seeded onto 24-well plates (2×10^5 cells per well) 24 hours before infection with BVDV (NADL strain) at a multiplicity of infection (MOI) of 0.1 PFU per cell. Serial dilutions of test compounds were added to cells in a final concentration of 0.5% DMSO in growth medium. Each dilution was tested in triplicate. After three days, cell cultures (cell monolayers and supernatants) were lysed by three freeze-thaw cycles, and virus yield was quantified by plaque assay. Briefly, MDBK cells were seeded onto 6-well plates (5×10^5 cells per well) 24 h before use. Cells were inoculated with 0.2 mL of test lysates for 1 hour, washed and overlaid with 0.5% agarose in growth medium. After 3 days, cell monolayers were fixed with 3.5% formaldehyde and stained with 1% crystal violet (w/v in 50% ethanol) to visualize plaques. The plaques were counted to determine the concentration to obtain a 6-log reduction in viral load.
# [4] = system: BVDV NADL cp in MDBK cells; assay: Plaque reduction assay; format: cell-based; conditions: Bovine viral diarrhea virus isolates and strains
# Protocol: For each compound the effective concentration was determined in duplicate 24-well plates by plaque reduction assays. Cell monolayers were infected with 100 PFU/well of virus. Then, serial dilutions of test compounds in MEM supplemented with 2% inactivated serum and 0.75% of methyl cellulose were added to the monolayers. Cultures were further incubated at 37° C. for 3 days, then fixed with 50% ethanol and 0.8% Crystal Violet, washed and air-dried. Then plaques were counted to determine the concentration to obtain 90% virus suppression.
# DENV-2 in BHK cells = assay: Cell protection assay; format: cell-based; conditions: Dengue virus, DENV2, DENV-2, BHK
# DENV-4 in BHK cells = assay: Cell protection assay; format: cell-based; conditions: Dengue virus, DENV4, DENV-4, BHK
# BVDV = assay: Antiviral test (Table 8b); format: cell-based; conditions: Bovine viral diarrhea virus isolates and strains; table note: BHK for Bovine Viral Diarrhea Virus
# DENV 2 = assay: Antiviral test (Table 8b); format: cell-based; conditions: Dengue virus
# CVB-3 = assay: microbe, parasite or virus in culture; format: cell-based, Coxsackievirus B-3; conditions: Coxsackievirus, read-out: EC50 CVB-3
# CVA-9 = assay: microbe, parasite or virus in culture; format: cell-based, Coxsackievirus A-9; conditions: Coxsackievirus, read-out: EC50 CVA-9
# WNV (Vero) = assay: microbe, parasite or virus in culture; format: cell-based; conditions: West Nile virus
# EBV (Daudi) = assay: microbe, parasite or virus in culture; format: cell-based; conditions: human gammaherpesvirus 4, Daudi
# West Nile virus = assay: microbe, parasite or virus in culture; format: cell-based; conditions: read-out: composite EC50 range, West Nile virus
# [5] = system: different strains of BVDV; assay: BVDV cell protection, plaque reduction and yield reduction assays, summary over strains; format: cell-based; conditions: Bovine viral diarrhea virus isolates and strains, all three assays
# BVDV RNA = assay: Intracellular BVDV RNA by Real Time RT-PCR in de novo-infected MDBK cells; format: cell-based; conditions: Bovine viral diarrhea virus isolates and strains, 18-hours post infection
# rig S15 mRNA = assay: Cellular housekeeping mRNA control by RT-PCR in MDBK cells; format: cell-based, bovine; conditions: up to 125 μM
# Cytotoxicity (Table 10) [6] = conditions: rhesus monkey, MA-104 cells
# Cytotoxicity (Table 10) [7] = conditions: human, HeLa-Ohio cells
# [8] = Human bone marrow clonogenic assay
# [9] = In vitro stability in human plasma; conditions: human plasma or crude human cytidine/deoxycytidine deaminase preparation, 37° C.
# [10] = Cytotoxicity (cell proliferation) assay; conditions: bovine, MDBK kidney cells
# [11] = Cytotoxicity (cell proliferation) assay; conditions: rat, H9c2 myocardial cells
# HepG2 cells [12] = assay: Mitochondria toxicity assay, lactic acid production
# [13] = Cellular DNA or RNA synthesis ([3H]-thymidine / [3H]-uridine incorporation); conditions: human, HepG2 cells
# [14] = read-out: Antiviral Efficacy EC90
smiles,measurement,setting,value
"CC1(O)C(O)C(CO)OC1n1ccc(N)nc1=O (centres unmarked) [mCyd, 4-Amino-1-(3,4-dihydroxy-5-hydroxymethyl-3-methyl-tetrahydro-furan-2-yl)-1H-pyrimidine-2-one]","mtDNA/nuclear DNA (% of Control), 6 day Treatment",HepG2 cells [1],117.3 ± 17.5 % of Control
same,"mtDNA/nuclear DNA (% of Control), 14 day Treatment",HepG2 cells [1],99.7 ± 23.9 % of Control
same,EC50,"[2]; Bovine viral diarrhea virus isolates and strains, yield reduction, BVDV NADL cp, MDBK",2770 ± 1160 nM
same,EC90,"[2]; Bovine viral diarrhea virus isolates and strains, yield reduction, BVDV NADL cp, MDBK, read-out: Antiviral Efficacy EC90",4.8 ± 1.55 µM
same,suppression of de novo BVDV production,"[2]; yield reduction assay, circa 20 μM",up to 6 log10
same,Antiviral Efficacy EC4 log,"[2]; yield reduction, BVDV NADL cp, MDBK",13.9 ± 3.07 μM
same,EC50,[3],680 nM
same,EC90,[3]; [14],1730 nM
same,EC50,[4],2570 ± 350 nM
same,EC90,[4]; [14],4.63 ± 0.72 µM
same,EC50,DENV-2 in BHK cells,95 µM
same,EC50,DENV-4 in BHK cells,59 µM
same,EC50,BVDV,2300 nM
same,EC50,DENV 2,95 µM
same,EC50,CVB-3,9 µM
same,EC50,CVA-9,26 µM
same,EC50,WNV (Vero),46 µM
same,EC50,EBV (Daudi),25.5 µg/mL
same,EC50,West Nile virus,46 to 97 µM
same,EC50,[5]; read-out: range of EC50 values against BVDV,300 to 2800 nM
same,EC90,[5]; read-out: range of EC90 values against BVDV,870 to 4800 nM
same,EC50,"BVDV RNA; read-out: EC50, BVDV RNA levels",1700 nM
same,EC90,"BVDV RNA; read-out: EC90, BVDV RNA levels",2300 nM
same,effect on level of rig S15 cellular mRNA control,rig S15 mRNA,No effect
same,CC50,Cytotoxicity (Table 10) [6],200 µM
same,CC50,"Cytotoxicity (Table 10) [6]; CC50, MA-104, Parainfluenza type 3 row",> 200 µM
same,CC50,Cytotoxicity (Table 10) [7],≥ 20 µg/mL
same,CC50,[8],13.9 ± 3.2 µM
same,in vitro stability / deamination to mUrd,[9],remained essentially unchanged
same,CC50 at 4 days,[10],36 µM
same,CC50 at 4 days,[11],> 250 µM
same,"L-Lactate (% of Control), HepG2 Cells","HepG2 cells [12]; 50 μM, 4 days",138.0 ± 8.9 % of Control
same,increase in lactic acid production,"HepG2 cells [12]; HepG2, 50 μM",38%
same,CC50,"[13]; probe [3H]-thymidine, CC50 DNA ([3H]Thymidine), 50% reduction of thymidine incorporation into cellular DNA",112 µM
same,CC50,"[13]; probe [3H]-uridine, CC50 RNA ([3H]Uridine), 50% reduction of uridine incorporation into cellular RNA",186 µM
